{"source": "patent US20210120811A1", "about": "“AQUEOUS CAPSULE SUSPENSION CONCENTRATES CONTAINING A HERBICIDAL SAFENER AND A PESTICIDAL ACTIVE SUBSTANCE” (priority 2018, published 2021)", "origin": "cited, not measured here", "data": [{"smiles": "CC1(C)CON(Cc2ccc(Cl)cc2Cl)C1=O", "note": "[DCPMI, 2-[(2,4-dichlorophenyl)methyl]-4,4′-dimethyl-3-isoxazolidinone]", "values": [{"measurement": "water solubility", "result": 39.5, "unit": "ppm"}]}]}
